Reference: patent US9340532B2, “Methods and compositions for inhibiting CNKSR1” (PHUSIS THERAPEUTICS, INC., priority 2012, dated 2016)

Target: T1, PH-domain of PDPK1 (Homo sapiens, UniProt O15530)
T1 construct: made in house
T1 sequence (O15530 459-550 limits assumed): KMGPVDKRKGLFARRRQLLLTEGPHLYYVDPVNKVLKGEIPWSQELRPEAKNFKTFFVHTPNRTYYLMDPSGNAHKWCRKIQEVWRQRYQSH
Assay: SPR binding to expressed PH-domain of PDPK1
Protocol: In embodiments, the binding of identified compounds to the crystal structures of other PH-domain signaling proteins, AKT, PDPK1, Btk, and Tiam1 can be predicted. In such embodiments, the Kds exceed about 100 μM. In other embodiments, SPR can measure the binding of identified compounds to the expressed PH-domains of AKT, PDPK1 and Tiam1. […] Thus, the identified compounds appear have, at least, about 50 to about 100 fold selectivity for CNKSR1 compared to the other PH-domains studied.
A commercially available docking package, GOLD (GOLD [3.2], CCDC: Cambridge, UK, 2007) was used to evaluate the docking of compounds 1-7 into the binding pocket, see e.g. Table 5. Other docking was performed using modeling algorithms with state-of-the-art commercial drug discovery software (Schrodinger suite). GLIDE was chosen as the docking algorithm used to select and optimize compounds, providing a GlideScore as a rough estimate of binding affinity that was used to rank and select the best compounds. Additionally, ligand-based approaches provided an alternative to structure based drug discovery. Ligand-based virtual screening methodologies can take into account shape and electrostatics (like ROCS) and the pharmacophoric features (acceptor, donor, hydrophobic, aromatic, etc.) of its functional groups. […]

SPR binding to PH-domain of PDPK1: No measurable binding
Compound: CCOC(=O)Cc1nn(Cc2nc(-c3ccc(C)cc3)cs2)c(=O)c2ccccc12 [Compound 7]
